Test results as given in ChEMBL document CHEMBL2429743, “Synthesis and antitumor properties of novel curcumin analogs” (Med Chem Res, 2013).
Activity calls are given as the source filed them. The calls are words filed in the database; no cut-off is given here.

Columns and labels:
[1] = test system: Bcap37; test: Cytotoxicity against human Bcap37 cells after 72 hrs by MTT assay; details: Bcap37, 72 h
[2] = test system: MGC-803; test: cells; details: Homo sapiens, MGC-803, 72 h
Description: Cytotoxicity against human MGC803 cells after 72 hrs by MTT assay

[3] = test system: PC-3; test: cells; details: Homo sapiens, PC-3, 72 h
Description: Cytotoxicity against human PC3 cells after 72 hrs by MTT assay

[4] = Selectivity index, ratio of IC50 for mouse NIH3T3 cells to IC50 for human MGC803 cells; assay type: functional
[5] = Selectivity index, ratio of IC50 for mouse NIH3T3 cells to IC50 for human Bcap37 cells; assay type: functional
[6] = Selectivity index, ratio of IC50 for mouse NIH3T3 cells to IC50 for human PC3 cells; assay type: functional
[7] = test system: MGC-803; test: Induction of apoptosis in human MGC803 cells assessed as early and late apoptosis ratio at 1 to 10 uM by annxinV-FITC/propidium iodide staining-based flow cytometry; assay type: functional, cell-based; details: TDE = time-dependent effect
[8] = test system: MGC-803; test: Induction of apoptosis in human MGC803 cells assessed as early and late apoptosis ratio at 10 uM after 24 hrs by annxinV-FITC/propidium iodide staining-based flow cytometry; assay type: functional
[9] = test system: MGC-803; test: Induction of apoptosis in human MGC803 cells assessed as early and late apoptosis ratio at 5 uM after 24 hrs by annxinV-FITC/propidium iodide staining-based flow cytometry; assay type: functional
[10] = test system: MGC-803; test: Induction of apoptosis in human MGC803 cells assessed as early and late apoptosis ratio at 1 uM after 24 hrs by annxinV-FITC/propidium iodide staining-based flow cytometry; assay type: functional
[11] = test system: MGC-803; test: Induction of apoptosis in human MGC803 cells assessed as early and late apoptosis ratio at 10 uM after 12 hrs by annxinV-FITC/propidium iodide staining-based flow cytometry; assay type: functional
[12] = test system: MGC-803; test: Induction of apoptosis in human MGC803 cells assessed as early and late apoptosis ratio at 5 uM after 12 hrs by annxinV-FITC/propidium iodide staining-based flow cytometry; assay type: functional
[13] = test system: MGC-803; test: Induction of apoptosis in human MGC803 cells assessed as early and late apoptosis ratio at 1 uM after 12 hrs by annxinV-FITC/propidium iodide staining-based flow cytometry; assay type: functional
[14] = test system: MGC-803; test: Induction of apoptosis in human MGC803 cells assessed as early and late apoptosis ratio at 10 uM after 6 hrs by annxinV-FITC/propidium iodide staining-based flow cytometry; assay type: functional
[15] = test system: MGC-803; test: Induction of apoptosis in human MGC803 cells assessed as early and late apoptosis ratio at 5 uM after 6 hrs by annxinV-FITC/propidium iodide staining-based flow cytometry; assay type: functional
[16] = test system: MGC-803; test: Induction of apoptosis in human MGC803 cells assessed as early and late apoptosis ratio at 1 uM after 6 hrs by annxinV-FITC/propidium iodide staining-based flow cytometry; assay type: functional
[17] = test system: MGC-803; test: Induction of apoptosis in human MGC803 cells assessed as DNA fragmentation at 5 uM after 12 hrs by EB staining-based agarose gel electrophoresis relative to control; assay type: functional, cell-based
[18] = test system: MGC-803; test: Induction of apoptosis in human MGC803 cells assessed as chromatin condensation at 5 uM after 12 hrs by Hoechst 33258 staining-based fluorescence microscopic analysis; assay type: functional, cell-based
[19] = test system: MGC-803; test: Induction of apoptosis in human MGC803 cells assessed as pyknotic nuclei at 5 uM after 12 hrs by Hoechst 33258 staining-based fluorescence microscopic analysis; assay type: functional, cell-based
[20] = test system: Bcap37; test: Induction of apoptosis in human Bcap37 cells assessed as chromatin condensation at 5 uM after 12 hrs by Hoechst 33258 staining-based fluorescence microscopic analysis; assay type: functional, cell-based
[21] = test system: Bcap37; test: Induction of apoptosis in human Bcap37 cells assessed as pyknotic nuclei at 5 uM after 12 hrs by Hoechst 33258 staining-based fluorescence microscopic analysis; assay type: functional, cell-based
[22] = test system: PC-3; test: Induction of apoptosis in human PC3 cells assessed as chromatin condensation at 5 uM after 12 hrs by Hoechst 33258 staining-based fluorescence microscopic analysis; assay type: functional, cell-based
[23] = test system: PC-3; test: Induction of apoptosis in human PC3 cells assessed as pyknotic nuclei at 5 uM after 12 hrs by Hoechst 33258 staining-based fluorescence microscopic analysis; assay type: functional, cell-based
[24] = test system: MGC-803; test: Induction of apoptosis in human MGC803 cells assessed as early and late apoptic cells at 5 uM after 12 hrs by AO/EB staining-based fluorescence microscopic analysis; assay type: functional, cell-based
[25] = test system: MGC-803; test: Induction of apoptosis in human MGC803 cells assessed as necrotic cells at 5 uM after 12 hrs by AO/EB staining-based fluorescence microscopic analysis; assay type: functional, cell-based
[26] = test system: Bcap37; test: Induction of apoptosis in human Bcap37 cells assessed as necrotic cells at 5 uM after 12 hrs by AO/EB staining-based fluorescence microscopic analysis; assay type: functional, cell-based
[27] = test system: Bcap37; test: Induction of apoptosis in human Bcap37 cells assessed as early and late apoptic cells at 5 uM after 12 hrs by AO/EB staining-based fluorescence microscopic analysis; assay type: functional, cell-based
[28] = test system: PC-3; test: Induction of apoptosis in human PC3 cells assessed as necrotic cells at 5 uM after 12 hrs by AO/EB staining-based fluorescence microscopic analysis; assay type: functional, cell-based
[29] = test system: PC-3; test: Induction of apoptosis in human PC3 cells assessed as early and late apoptic cells at 5 uM after 12 hrs by AO/EB staining-based fluorescence microscopic analysis; assay type: functional, cell-based

Cc1cccc2c(Oc3ccc(/C=C/C(=O)/C=C/c4cc([N+](=O)[O-])ccc4Cl)cc3)ncnc12
IC50 [1]: 7.89 µM | IC50 [2]: 1.86 µM | IC50 [3]: 2.79 µM

COc1ccccc1/C=C/C(=O)/C=C/c1ccc(Oc2ncnc3ccccc23)cc1
Ratio IC50 [4]: 6.13 | Ratio IC50 [5]: <2 | Ratio IC50 [6]: 3.4 | IC50 [1]: 7.82 µM | IC50 [2]: 2.03 µM | IC50 [3]: 3.66 µM

COc1ccc(OC)c(/C=C/C(=O)/C=C/c2ccc(Oc3ncnc4c(C)cccc34)cc2)c1
IC50 [1]: 8.17 µM | IC50 [2]: 2.32 µM | IC50 [3]: 4.71 µM

CC(=O)/C=C/c1ccc(Oc2ncnc3c(C)cccc23)cc1
IC50 [1]: 30.3 µM | IC50 [2]: 19.9 µM | IC50 [3]: 25.8 µM

O=C(/C=C/c1ccc(Cl)cc1)/C=C/c1ccc(Oc2ncnc3ccccc23)cc1
IC50 [1]: 11.3 µM | IC50 [2]: 4.84 µM | IC50 [3]: 7.35 µM

Cc1nn(C)c(Cl)c1/C=C/C(=O)/C=C/c1ccc(Oc2ncnc3ccccc23)cc1
IC50 [1]: 18.9 µM | IC50 [2]: 9.31 µM | IC50 [3]: 11.5 µM

Cc1cccc2c(Oc3ccc(/C=C/C(=O)/C=C/c4ccc(F)cc4)cc3)ncnc12
IC50 [1]: 9.25 µM | IC50 [2]: 4.36 µM | IC50 [3]: 7.36 µM

O=C(/C=C/c1ccc(Oc2ncnc3ccccc23)cc1)/C=C/c1cc([N+](=O)[O-])ccc1Cl
Activity [7]: tde | Activity [8]: 27.1% | Activity [9]: 8.9% | Activity [10]: 5.3% | Activity [11]: 10.5% | Activity [12]: 6.2% | Activity [13]: 2.8% | Activity [14]: 6.4% | Activity [15]: 4.1% | Activity [16]: 2.4% | Activity [17]: Active | Activity [18]: Active | Activity [19]: Active | Activity [20]: Active | Activity [21]: Active | Activity [22]: Active | Activity [23]: Active | Activity [24]: Active | Activity [25]: Active | Activity [26]: Active | Activity [27]: Active | Activity [28]: Active | Ratio IC50 [4]: >8 | Activity [29]: Active | Ratio IC50 [5]: 5.72 | Ratio IC50 [6]: >8 | IC50 [1]: 3.9 µM | IC50 [2]: 0.86 µM | IC50 [3]: 1.34 µM

Cc1cccc2c(Oc3ccc(/C=C/C(=O)/C=C/c4ccc(Cl)cc4Cl)cc3)ncnc12
IC50 [1]: 32.8 µM | IC50 [2]: 5.13 µM | IC50 [3]: 15.2 µM
